Experimental data reported in US4198424A, “Substituted 1-phenyl-2-pyrrolidin-2-yl-ethanols, their synthesis, their use and their compositions” (Byk Gulden Lomberg Chemische Fabrik GmbH, priority 1977, dated 1980).

What was measured:
[1] = Determination of the lethal effect (LD50, oral, mouse); details: in vivo, per os, 48 hours observation
Procedure: The toxicity investigations were carried out on female NMRI mice: body weight 22 to 26 g. The animals received food and water (Altromin®) ad libitum. The substances to be tested were administered orally with the oesophageal sound as solutions of various concentration in a volume of from 10 to 20 ml/kg; 5 animals per dose were kept in Makrolon® cages, Type II. The observation duration was 48 hours. The DL50, the dose with which 50% of the animals died, was determined graphically from the dose effect curve.

albino mice [2] = assay: Tail-Flick test (analgesia, mouse); format: in vivo; details: po, per os, dose prolonging reaction time by 50%
Procedure: (§1) (b) Tail-Flick test: a thermal pain is caused at the tail root of female albino mice or rats with a focused heat ray, and the time until the tail is drawn away is recorded with a stop watch. Normally, it lies in the range of from 4 to 5 seconds. The substances tested cause delayed reaction to the heat pain, i.e. reduced thermal-pain reaction. The dose which prolongs the reaction time by 50% was determined. Literature: D'Amour, F. E., and Smith, D. L., J. Pharmacol. Exp. Ther., 72 (1941) 74.

albino mice [3] = assay: Hot plate test (analgesia, mouse); format: in vivo; details: po, per os; for ED50: dose prolonging reaction time by 50%; for ED40: *ED40 values, read-out: ED40 Hot plate (values marked *)
Procedure: (a) Hot plate test: female albino mice were placed on a 50° C. hot plate and the reaction time until they licked their paws was recorded with a stop watch. Normal values lie in the range of from 7 to 8 seconds. The substances tested cause delayed reaction to the heat stimulus, i.e. reduced thermal-pain sensitivity. The dose which prolongs the reaction time by 50% was determined. Literature: Eddy, N. B., and Leimbach, D., J. Pharmacol. Exp. Ther., 107 (1953) 385.

rats = assay: Tail-Flick test (analgesia, rat); format: in vivo; details: po, per os, dose prolonging reaction time by 50%
Procedure: as §1

albino mice [4] = assay: Writhing test (acetic acid writhing, analgesia, mouse); format: in vivo; details: po, per os; for ED50: dose reducing number of writhings by 50%; for ED40: *ED40 values, read-out: ED40 Writhing (values marked *)
Procedure: (c) Writhing test (acetic acid writhing): intraperitoneal injection of 0.2 ml/20 g mouse of a 0.75% strength acetic acid solution induces (in albino mice) a typical syndrome, called writhing, which proceeds over the body with dorsal flection. These writhings, which occur in the course of the first half hour after administration, are counted in the space of time of from 5 to 20 minutes after administration. The substances tested cause a reduction of the number of writhing syndromes. […] Literature: Koster, Anderson, Fed. Proc., 18 (1959) 42.

mice = assay: Withdrawal jumping of mice after treatment and intraperitoneal application of naloxone; format: in vivo, mouse; details: for withdrawal jumping after naloxone (in words): 200 mg/kg twice daily over 5 weekdays, naloxone 30 mg/kg i.p. 1 hour after last dose; for % of the animals reacting with "jumping": naloxone intraperitoneal, 3 and 6 given 200 mg/kg twice daily over 5 weekdays, NaCl control 20
Procedure: (§2) According to Way et al. [J. Pharmacol. Exp. Ther., 167 (1969) 1] mice, which are dependent on analgesics with a morphine-like effect, react with withdrawal jumping immediately after intraperitoneal administration of naloxone. According to Saelens and co-workers [Arch. Int. Pharmacodyn. […] 2 cannot be tested accordingly because of its toxicity.
(§3) 3 and 6 were administered to mice [200 mg/kg twice daily over 5 weekdays].

albino mice [5] = assay: Tail-Flick test (analgesia, mouse); format: in vivo; details: po, per os, *ED40 values, read-out: ED40 Tail-Flick (values marked *)
[6] = Saelens et al., Arch. Int. Pharmacodyn. Ther., 190 (1971) 213; cited from earlier work
[7] = Withdrawal jumping of mice after treatment and intraperitoneal application of naloxone; format: in vivo, mouse; details: mouse, in vivo, not testable for jumping, read-out: lethality in withdrawal jumping test
Procedure: as §2, §3

SMILES | LD50 at 48 h [1] [mg/kg] | ED50 (albino mice [2]) [mg/kg] | ED50 (albino mice [3]) [mg/kg] | ED50 (rats) [mg/kg] | ED50 (albino mice [4]) [mg/kg] | withdrawal jumping after naloxone (in words) (mice) | % of the animals reacting with "jumping" (mice) [%] | ED40 (albino mice [3]) [mg/kg] | ED40 (albino mice [5]) [mg/kg] | ED40 (albino mice [4]) [mg/kg] | dependence development [6] | mortality [7] [%]
Cc1cccc(C(O)CC2CCCN2C)c1 (stereo not drawn) [Compound 6, 2-(1-methylpyrrolidin-2-yl)-1-(3-tolyl)ethanol] | 420 | 35 | 100 | 10 | 75 | did not lead to withdrawal jumping | 10 |  |  |  |  | 
COc1cccc(C(O)CC2CCCN2C(C)C)c1 (stereo not drawn) [Compound 9, 2-(1-isopropyl-2-pyrrolidinyl)-1-(3-methoxyphenyl)ethanol] | 340 |  |  |  | 75 |  |  | 100 | 75 |  |  | 
COc1cccc([C@@H](C[C@@H]2CCCN2C)OC(C)=O)c1 (relative stereo) [Compound 13, (R*,S*)-acetic acid-[1-(3-methoxyphenyl)-2-(1-methyl-2-pyrrolidinyl)-ethyl]-ester] | 440 |  |  |  |  |  |  |  |  | 75 |  | 
CCC(=O)O[C@](Cc1ccccc1)(c1ccccc1)[C@H](C)CN(C)C [Compound 1, dextropropoxyphene, reference compound] | 140 | 25 | 15 | 25 | 30 |  | 100 |  |  |  | a dependence development is evidenced | 
Cc1cccc([C@H](O)C[C@@H]2CCCN2C)c1 (relative stereo) [Compound 7, (R*,S*)-1-(3-methylphenyl)-2-(1-methyl-2-pyrrolidinyl)-ethanol] | 300 | 50 | 100 |  |  |  |  |  |  | 75 |  | 
COc1cccc([C@H](O)C[C@H]2CCCN2C)c1 (relative stereo) [Compound 5, (R*,R*)-1-(3-methoxyphenyl)-2-(1-methyl-2-pyrrolidinyl)ethanol] | 490 | 70 | 50 |  | 40 |  |  |  |  |  |  | 
CCCCCCN1CCCC1CC(O)c1cccc(OC)c1 (stereo not drawn) [Compound 12, 2-(1-n-hexyl-2-pyrrolidinyl)-1-(3-methoxyphenyl)-ethanol] | 180 | 70 |  |  |  |  |  |  |  | 75 |  | 
CN1CCCC1CC(O)c1cccc(O)c1 (stereo not drawn) [Compound 10, 1-(3-hydroxyphenyl)-2-(1-methyl-2-pyrrolidinyl)-ethanol] | 420 |  |  |  | 125 |  |  |  |  |  |  | 
CN1CCCC1CC(O)c1cccc(Cl)c1 (stereo not drawn) [Compound 11, 1-(3-chlorophenyl)-2-(1-methyl-2-pyrrolidinyl)-ethanol] | 330 | 65 |  |  | 125 |  |  |  |  |  |  | 
Cc1cccc([C@H](O)C[C@H]2CCCN2C)c1 (relative stereo) [Compound 8, (R*,R*)-1-(3-methylphenyl)-2-(1-methyl-2-pyrrolidinyl)-ethanol] | 320 | 10 |  |  |  |  |  | 100 |  | 75 |  | 
CN1CCOC(c2ccccc2)c2ccccc2C1 (stereo not drawn) [Compound 2, nefopam, reference compound] | 180 | 20 | 30 | 10 | 25 |  |  |  |  |  |  | 80
COc1cccc(C(O)CC2CCCN2C)c1 (stereo not drawn) [Compound 3, 1-(3-methoxyphenyl)-2-(1-methylpyrrolidin-2-yl)-ethanol] | 600 | 25 | 30 | 7 | 15 | did not lead to withdrawal jumping | 20 |  |  |  |  | 
COc1cccc([C@H](O)C[C@@H]2CCCN2C)c1 (relative stereo) [Compound 4, (R*,S*)-1-(3-methoxyphenyl)-2-(1-methyl-2-pyrrolidinyl)-ethanol] | 420 | 60 | 100 |  | 50 |  |  |  |  |  |  | 
